# Source: patent US20160374981A1, “ANORECTIC AGENT” (Nippon Suisan Kaisha, Ltd., priority 2012, published 2016)
# How the values were obtained:
# Format in all cases: in vivo
# [1] = system: cholecystokinin (CCK); experiment: Blood cholecystokinin (CCK) level in SD rats after single oral dose (ELISA); conditions: male SD rats, versus control group (FIG. 13)
# Protocol: (§1) Using a 1.5% (by weight) aqueous solution of a fatty acid ester of glycerol (RYOTO® POLYGLYESTER; product of Mitsubishi-Kagaku Foods Corporation) as a solvent, a free fatty acid form of palmitoleic acid (C16:1) and a free fatty acid form of oleic acid (C18:1), both being products of Sigma, were added to the solvent and uniformly emulsified by sonication in an ice bath to thereby prepare dosing samples.
# (§2) Male Sprague-Dawley rats (hereinafter referred to as SD rats) were used in the test. Nine-week-old SD rats (Japan SLC, Inc.) were purchased and preliminarily reared for a week in individual cages. […]
# (§3) After the preliminary rearing, the 10-week-old SD rats were divided into the following three groups (10 animals per group) considering their body weight: a control group administered with only the solvent (hereinafter referred to as “control group”); a group administered with palmitoleic acid (C16:1) (hereinafter “C16:1 administered group”); and a group administered with oleic acid (C18:1) (hereinafter “C18:1 administered group”); these groups of rats were subjected to the main test. […] With the level of gene expression in the control group taken as unity, the relative expression levels of respective genes in the C16:1 administered group or 18:1 administered group were calculated. […]
# [2] = Single-dose oral administration of free fatty acids to SD rats: food intake; conditions: male SD rats
# Protocol: as §1, with “(C16:1), a free fatty acid form of palmitic acid (C16:0),” for “(C16:1) and”, “a free fatty acid form of lauric acid (C12:0), a free fatty acid form of decenoic acid (C10:1), and a free fatty acid form of linoleic acid (C18:2), all” for “both”
# (§4) Male Sprague-Dawley rats (hereinafter referred to as SD rats) were used in the experiment. Nine-week-old SD rats (Japan SLC, Inc.) were purchased and preliminarily reared for a week in individual cages. During the preliminary rearing period, the animals were allowed free access to the solid feed Labo MR Stock (Nosan Corporation) and distilled water through water bottles.
# After the preliminary rearing, the 10-week-old SD rats were divided into the following seven groups (10 animals per group) considering their body weight: a control group administered with only the solvent (hereinafter referred to as “control group”); a group administered with palmitoleic acid (C16:1) (hereinafter “C16:1 administered group”); a group administered with palmitic acid (C16:0) (hereinafter “C16:0 administered group”); a group administered with oleic acid (C18:1) (hereinafter “C18:1 administered group”); a group administered with lauric acid (C12:0) (hereinafter “C12:0 administered group”); a group administered with decenoic acid (C10:1) (hereinafter “C10:1 administered group”); and a group administered with linoleic acid (C18:2) (hereinafter “C18:2 administered groups”); these groups of rats were subjected to the main test. In the main test, the solvent or each fatty acid under test was orally administered in a single dose through a gastric tube on the very day of the experiment. To the control group of SD rats, the solvent was orally administered at a dose of 10 mL/kg per animal. The test subjects, C16:1, C16:0, C18:1, C12:0, C10:1 and C18:2, each taken in an amount of 150 mg or 500 mg, were added to 10 mL of the solvent and emulsified; the emulsion was orally administered to the SD rats in a dose of 10 mL/kg per animal and a measurement was conducted both 30 minutes and an hour later. The amount of food intake (the amount of food supplied immediately after the dosing of sample minus the amount of food at a specified time after the dosing of sample) was measured both 30 minutes and an hour after oral administration of the test sample.
# [3] = Long-term oral administration of free fatty acids to KKAy mice: food intake and body weight; conditions: male KKAy mice
# Protocol: Using a 1.5% (by weight) aqueous solution of a fatty acid ester of glycerol (RYOTO®POLYGLYESTER; product of Mitsubishi-Kagaku Foods Corporation) as a solvent, a free fatty acid form of palmitoleic acid (C16:1), a free fatty acid form of palmitic acid (C16:0), a free fatty acid form of gadoleic acid (C20:1), and a free fatty acid form of erucic acid (C22:1), all being products of Sigma with purities of 99% and more, were added to the solvent and uniformly emulsified by sonication in an ice bath to thereby prepare dosing samples.
# as §4, with “Male, spontaneously diabetic model mice KKAy/Ta” for “Male Sprague-Dawley rats”, “KKAy mice)” for “SD rats)”, “test. Five-week-old KKAy mice (CLEA Japan,” for “experiment. Nine-week-old SD rats (Japan SLC,”
# After the preliminary rearing, the 6-week-old KKAy mice were divided into the following five groups (10 animals per group) considering their body weight: a control group administered with only the solvent (hereinafter referred to as “control group”); a group administered with palmitoleic acid (C16:1) (hereinafter “C16:1 administered group”); a group administered with palmitic acid (C16:0) (hereinafter “C16:0 administered group”); a group administered with gadoleic acid (C20:1) (hereinafter “C20:1 administered group”); and a group administered with erucic acid (C22:1) (hereinafter “C22:1 administered group”); these groups of mice were subjected to the main test. In the main test, the mice of each group were reared for 4 weeks under the environment of light (12 hr) and dark (12 hr) cycles as they were allowed free access to the powdered feed Labo MR Stock (Nosan Corporation) and distilled water through water bottles. In the process, the solvent or each fatty acid under test was orally administered through a gastric tube at 10 a.m. every day. […]
# During the 4-week rearing period, the amount of food supplied was measured at days 1, 5, 9, 12, 16, 19, 23 and 26 after dosing and the amount of leftover was measured on the next day, with the respective measurements being conducted for each feeder. The amount of daily food intake was calculated from the difference between the values for two consecutive measurements. The “average food intake” is the average of the food intakes as measured on the respective days of measurement. […] The percent body weight gain was calculated by the formula [(final body weight−initial body weight)/initial body weight]×100. The “final body weight” is the body weight as measured after the end of the 4-week rearing period whereas “initial body weight” is the body weight as measured at the start of the test.
# [4] = system: CCK mRNA; experiment: Small intestine CCK mRNA expression level in SD rats after single oral dose (real-time PCR); conditions: male SD rats; an hour after single oral dose 500 mg/kg; versus control group (FIG. 14)
# Protocol: as §1, §2, §3
# [5] = an hour after single oral dose 150 or 500 mg/kg, comparison with other fatty acids, versus control group (FIG. 11)
compound,measurement,setting,value
"CCCCCCCC/C=C\CCCCCCCC(=O)O [oleic acid, reference compound]",blood CCK level,[1]; an hour after single oral dose 150 or 500 mg/kg,no significant elevation
"CCCCCCCCCCCCCCCC(=O)O [C16:0, palmitic acid, reference compound]",food intake (test for dose-dependency),"[2]; 30 minutes after single oral dose 50, 150 or 500 mg/kg, compared with control group and C16:0 administered group (FIG. 7)",decreased significantly in a dose-dependent manner
"CCCCCCCCCCCC(=O)O [C12:0, lauric acid, reference compound]",food intake,[2]; [5],no significant drops
"CCCCCC/C=C\CCCCCCCC(=O)O [C16:1, palmitoleic acid]",food intake,"[3]; 300 mg in 10 mL solvent, 10 mL/kg oral every day, 4 weeks, compared with control group (FIGS. 1 and 2)",significant drops in the food intake
same,percent body weight gain,"[3]; 4 weeks after administration, compared with control group (FIG. 4)",significant drop in the percent body weight gain
same,daily averages for the amount of food intake,"[3]; daily oral administration, 4 weeks, FIG. 2, P<0.05",significant drop in the amount of food intake
same,body weight,"[3]; daily oral administration, second to fourth week of dosing, compared with control group (FIG. 3)",significant drop in body weight
same,food intake,"[2]; 30 minutes after single oral dose 500 mg/kg, compared with control group and C16:0 administered group (FIGS. 5 and 6)",significant drop in food intake
same,food intake,"[2]; 30 minutes after single oral dose 150 or 500 mg/kg, compared with control group and C18:1 administered group (FIGS. 8-9)",significant drops in food intake
same,food intake,"[2]; an hour after single oral dose 500 mg/kg, compared with control group and C16:0 administered group (FIGS. 5 and 6)",significant drop in food intake
same,food intake,"[2]; an hour after single oral dose 150 or 500 mg/kg, compared with control group and C18:1 administered group (FIGS. 8, 10)",significant drops in food intake
same,food intake,[2]; [5],significant drops in food intake
same,blood CCK level,[1]; an hour after single oral dose 500 mg/kg,increased significantly
same,small intestine CCK mRNA expression level,[4],increased significantly
"decenoic acid [C10:1, reference compound]",food intake,[2]; [5],no significant drops
"CCCCC/C=C\C/C=C\CCCCCCCC(=O)O [C18:2, linoleic acid, reference compound]",food intake,[2]; [5],no significant drops
